pKd: −log10 of the molar value.
How the values were obtained:
BRD4 D1 = conditions: data from previous screen; cited from earlier work
BPTF bromodomain [1] = target: T1, BPTF bromodomain (Homo sapiens, UniProt Q12830); set-up: against the bromodomains of BPTF and Plasmodium falciparum GCN5 (PfGCN5); his6; made in house; conditions: cited from earlier work
PfGCN5 bromodomain [2] = target: T2, PfGCN5 bromodomain (Plasmodium falciparum, UniProt Q8IB67); assay: 1H CPMG NMR deconvolution of hit mixtures, PfGCN5; type: binding; conditions: 10 µM protein, 100 µM ligand
T2 sequence (Q8IB67 entry or part of it): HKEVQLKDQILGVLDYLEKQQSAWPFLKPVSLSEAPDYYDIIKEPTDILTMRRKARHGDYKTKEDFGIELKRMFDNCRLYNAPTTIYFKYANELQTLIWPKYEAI
Description: The second step is a ^1H CPMG NMR deconvolution of the hit mixtures using the non-fluorine-labeled bromodomains. ^1H CPMG NMR employs a T2 filter to take advantage of the difference in transverse relaxation time between protein and small molecules to filter out the bound-state ligand(s). Unlike the PrOF NMR assay, a single protein is assayed in each experiment. A binding event is characterized by a decrease in ligand resonance intensity from the ligand alone spectrum to the ligand + protein spectrum. A hit is defined as a decrease in resonance intensity ≥ 20%. The ^1H CPMG NMR assay can be tuned by changing the protein or ligand concentration, filter length (Figure 1), or hit criteria depending on how stringent the desired hit rate is. The number of ^1H CPMG NMR deconvolution experiments is directly informed from the first step. If a mixture from the first step was only a hit for one protein, a single ^1H CPMG NMR deconvolution experiment is needed. If a mixture from the first step was a hit for both proteins, two separate ^1H CPMG NMR deconvolutions experiments are needed to determine the fragments that bind to each protein.
(§1) ^1H CPMG NMR. ^1H CPMG NMR screen data were acquired on Bruker Avance III HD 500 with the 5 mm Prodigy TCI cryoprobe inverse cryoprobe (^1H 2500:1 S/N). Competition ^1H CPMG NMR data were acquired on Bruker 700 MHz Avance with a CryoProbe 5 mm TXI (^1H S:N with H2O suppression (2mM sucrose) - 900:1) and excitation sculpting water suppression. Proteins were present at 10 µM in 50 mM phosphate, 100 mM NaCl, pH 7.4 in 100% D2O. In separate NMR tubes, a ^1H CPMG NMR pulse was applied to a 1) mixture of ligands (individual ligands present at 100 µM for the screen and 50 µM for competition experiments) and 2) ligands + protein. […] For the competition experiments, τ was increased to 4.0 ms.

PfGCN5 bromodomain [3] = target: T2, PfGCN5 bromodomain; assay: Competition 1H CPMG NMR with PfGCN5; type: binding
Excerpt: The competition ^1H CPMG NMR and PrOF NMR assays were employed to further probe the binding mode of 9 to PfGCN5. […] At high concentrations, at or above the protein concentration, the competition maxed out at ~ 50% (Figure 2, Figure S10, Table S5). Conversely, TP-238 was able to compete 9 off from BPTF at low concentrations.
^1H CPMG NMR. ^1H CPMG NMR screen data were acquired on Bruker Avance III HD 500 with the 5 mm Prodigy TCI cryoprobe inverse cryoprobe (^1H 2500:1 S/N). Competition ^1H CPMG NMR data were acquired on Bruker 700 MHz Avance with a CryoProbe 5 mm TXI (^1H S:N with H2O suppression (2mM sucrose) - 900:1) and excitation sculpting water suppression. Proteins were present at 10 µM in 50 mM phosphate, 100 mM NaCl, pH 7.4 in 100% D2O. In separate NMR tubes, a ^1H CPMG NMR pulse was applied to a 1) mixture of ligands (individual ligands present at 100 µM for the screen and 50 µM for competition experiments) and 2) ligands + protein. For competition experiments, the ligands were used individually, and the competitor ligands were spiked into tube 2. ^1H CPMG NMR parameters for the screen: NS = 128, acquisition time = 2 s, τ = 2.5 ms, and L = 120. For the competition experiments, τ was increased to 4.0 ms.

BPTF bromodomain [4] = target: T1, BPTF bromodomain; assay: Competition 1H CPMG NMR with BPTF; type: binding; set-up: deconvolution of the hit mixtures using the non-fluorine-labeled bromodomains; made in house; host or cells: E. coli BL21(DE3)
Description: The competition ^1H CPMG NMR and PrOF NMR assays were employed to further probe the binding mode of 9 to PfGCN5.
as §1

BPTF bromodomain [5] = target: T1, BPTF bromodomain; assay: PrOF NMR (dual-protein screen of mixtures, titrations) with 5FW-BPTF; type: binding; set-up: against the bromodomains of BPTF and Plasmodium falciparum GCN5 (PfGCN5); his6; made in house; conditions: hit mixture containing the fragment, 400 µM each fragment
Description: The screening workflow consists of two dependent steps: 1) a PrOF NMR screen of the 5FW-labeled proteins and a cocktail of 4–5 fragments in a single NMR tube; 2) a ^1H CPMG NMR binding assay to deconvolute the hit mixtures for each protein (Figure 1). In the first step, a dual-protein PrOF NMR spectrum was obtained in which 5FW-PfGCN5, 5FW-BPTF (~ 50 µM each) and mixtures of fragments (400 µM individual fragment) were present in the same NMR tube. […] Chemical shift perturbations indicating a ligand binding event were based on a prior cutoff of Δδ ≥ 0.030 ppm as the definition for a hit mixture. This cutoff was based on a statistical analysis of chemical shift perturbations from a prior BRD4 D1 fragment screen and are described further in the experimental section and in Table S2.
PrOF NMR. PrOF NMR spectra were obtained on a Bruker Avance III HD 500 with the 5 mm Prodigy TCI inverse cryoprobe (^19F S:N 2000:1). […] The DMSO concentration for all experiments was kept constant at 1%. […] For the PrOF NMR screen, 5FW-BPTF and 5FW-PfGCN5 (35–40 µM in 50 mM phosphate, 100 mM NaCl, pH 7.4) were tested with mixtures of 4–5 fragments, where each individual fragment was 400 µM. […] A 10 Hz line broadening was applied. Titrations were fit to Equation (2), where p is the protein concentration and L is the ligand concentration. (2) Δδ=Δδmax × (Kd+P+L ) − (((Kd + P + L )^2) − 4PL)/2P
A PrOF NMR binding event is characterized as a change in chemical shift (Δδ) from the protein-only spectrum to the protein + fragment mixture spectrum. We used a prior cutoff of Δδ ≥ 0.030 ppm as the definition of a hit mixture, based on a statistical analysis of chemical shift perturbations from a prior BRD4 D1 fragment screen.

Compound: Nc1ccc2c(c1)N(C(=O)C1CC1)CCC2 [Fragment 9]
- pKd (BRD4 D1): 4.30
- single-point PrOF NMR Δδ with BPTF (BPTF bromodomain [1]; 400 µM 9, previous screen): 0.453 ppm
- pKd (BPTF bromodomain [1]; via PrOF NMR): 3.74
- PfGCN5 CPMG % decrease (PfGCN5 bromodomain [2]): 100%
- 1H CPMG NMR % Drop in Resonance Intensity PfGCN5 (PfGCN5 bromodomain [2]; for 9 from competition experiments (footnote a)): ++++ ^a (++++ = 80–99.9%)
- % drop PfGCN5 (PfGCN5 bromodomain [3]; resonance of 9 at 2.6884 ppm, GSK series): 72%
- % drop PfGCN5 (PfGCN5 bromodomain [3]; resonance of 9 at 2.6884 ppm, L-Moses series): 83%
- % drop PfGCN5 (PfGCN5 bromodomain [3]; resonance of 9 at 6.98 ppm, GSK series): 71%
- % drop PfGCN5 (PfGCN5 bromodomain [3]; resonance of 9 at 6.98 ppm, L-Moses series): 75%
- % drop BPTF (BPTF bromodomain [4]; resonance of 9 at 2.6884 ppm): 46%
- % drop BPTF (BPTF bromodomain [4]; resonance of 9 at 6.98 ppm): 68%
- Initial Mixture BPTF PrOF NMR Δδ (BPTF bromodomain [5]): ++++ (++++ = Δδ > 0.2)
